Source: US10632181B2, “Composition, containing RGD motif-containing peptide or fragment thereof, for treating burns and glaucoma, alleviating skin wrinkles, and promoting hair growth” (HUONS CO., LTD., priority 2014, dated 2020)

Assays:
Assay type in all cases: in vivo, Women aged 30-65
wrinkles around eyes [1] = assay: Expert visual assessment of wrinkles (global photodamage score); settings: for expert visual assessment score: severity 0-7
Description: Furthermore, visual assessment was performed. At each visit before and after use, experts assessed the wrinkle extent by scoring using global photodamage score (Br J Dermatol. 2010; 162(3):497-502). To verify if there is any difference in each of control group and experimental group in 4 weeks after use, a change (%) in visual assessment scores of 2 weeks and 4 weeks after use relative to before use was analyzed. The visual assessment scores are as follows (Table 18): […]

wrinkles around eyes [2] = assay: Survey of subjects about wrinkle reduction effectiveness
Description: Furthermore, surveying the subjects about effectiveness was conducted. The subjects were asked to personally make responses about the extent to which the subjects felt that wrinkles reduced after use of test product using 5 levels: better (4), a little bit better (3), no change (2), a little bit worse (1), worse (0). The researcher determined if test product has efficacy by calculating the percentage of the number of subjects for each response.

wrinkles around eyes [3] = assay: Wrinkle extent around eyes, skin replica, Visiometer SV600; parameters: R3 numerical value (average roughness) / R1 numerical value (skin roughness) / R4 numerical value (smoothness depth) / R5 numerical value (arithmetic average roughness): unit not given here
Description: The extent of wrinkles around eyes was measured using equipment. A target site to measure the wrinkle extent was regions around the eyes of the subjects, and the left side and the right side of the face were set as a measurement site. To measure the wrinkle extent, the subjects were allowed to wash the measurement site with water, and take a rest for 30 minutes in the waiting room under constant temperature and constant humidity conditions of indoor temperature 20-25° C. and humidity 40-60% to acclimate the skin surface temperature and humidity to the environment of the measurement space, and were not permitted to drink water during the rest. For objective measurement, measurements were performed by one researcher, and the same site was measured at each time of the first visit before use and the second and third visits in 2 and 4 weeks after use. Transparency profilometry analysis was performed using Visiometer SV600 (Courage-Khazaka electronic GmbH, Germany) on skin replica of the site to which test product and control product were applied before use and 2 and 4 weeks after use, and to identify if there is any difference in each of control group and experimental group after use, a change (%) in R1, R2, R4, R5 measurement values in 2 and 4 weeks after use relative to before use was analyzed.

wrinkles around eyes [4] = assay: Wrinkle extent around eyes by 3D imaging (PRIMOS Premium); settings: for Rmax numerical value (maximum height of wrinkle profile) / Rp numerical value (maximum profile peak height) / Rv numerical value (maximum profile valley depth): in µm (unit assumed)
Description: Furthermore, the wrinkle extent was measured by 3D imaging. A target site to measure the wrinkle extent was regions around the eyes of the subjects, and the right side of the face was set as a measurement site. To measure the wrinkle extent, the subjects were allowed to wash the measurement site with water, and take a rest for 30 minutes in the waiting room under constant temperature constant humidity conditions of indoor temperature 20-25° C. and humidity 40-60% to acclimate the skin surface temperature and humidity to the environment of the measurement space, and were not permitted to drink water during the rest. For objective measurement, measurements were performed by one researcher, and the same site was measured at each time of the first visit before use and the second and third visits in 2 and 4 weeks after use. Before use and in 2 and 4 weeks after use, images of the site to which the test product (HU022 (SEQ ID NO:1)) was applied were formed using 3D skin imaging machine (PRIMOS Premium), and to verify if there is any difference in each of control group and experimental group in 4 weeks after use, wrinkle parameters, Ra, Rmax, Rt, Rp, Rv values, in the stored images of 2 weeks and 4 weeks after use relative to before use were analyzed.

wrinkles around eyes [5] = assay: Wrinkle extent around eyes, skin replica, Visiometer SV600; parameters: R3 numerical value (average roughness): unit not given here; settings: Before use
[6] = response 2 (fair), 4 weeks after use
[7] = response 3 (good), 4 weeks after use

HU022: polypeptide consisting of 452nd-509th amino acids of ADAM 15 (GenBank AAH14566.1), 58 amino acids; commercial product (EYEGENE Inc.)
expert visual assessment score (wrinkles around eyes [1]; 2 weeks after use): 2.17 ± 0.75
expert visual assessment score (wrinkles around eyes [1]; 4 weeks after use): 1.67 ± 1.03
expert visual assessment score (wrinkles around eyes [1]; Before use): 2.17 ± 0.75
Change(%) in expert visual assessment score (wrinkles around eyes [1]; Before use-2 weeks after use): 0%
Change(%) in expert visual assessment score (wrinkles around eyes [1]; Before use-4 weeks after use): −23.08%
Number of subjects, wrinkle reduction survey (wrinkles around eyes [2]; response 0 (very bad), 4 weeks after use): 0
Number of subjects, wrinkle reduction survey (wrinkles around eyes [2]; response 1 (bad), 4 weeks after use): 0
Number of subjects, wrinkle reduction survey (wrinkles around eyes [2]; [6]): 1
Percentage of subjects, wrinkle reduction survey (wrinkles around eyes [2]; [6]): (16.7) %
Number of subjects, wrinkle reduction survey (wrinkles around eyes [2]; [7]): 5
Percentage of subjects, wrinkle reduction survey (wrinkles around eyes [2]; [7]): (83.3) %
Number of subjects, wrinkle reduction survey (wrinkles around eyes [2]; response 4 (very good), 4 weeks after use): 0
Mean of wrinkle reduction survey response (wrinkles around eyes [2]; scale 0-4, 4 weeks after use): 2.83
survey assessment about wrinkle reduction, test product versus control product (wrinkles around eyes [2]; third visit, 4 weeks after use): test product was better at reducing wrinkles than control product
R1 numerical value (skin roughness) (wrinkles around eyes [3]; 2 weeks after use, twice daily): 54.59 ± 10.99
R2 numerical value (maximum roughness) (wrinkles around eyes [3]; 2 weeks after use, twice daily): 36.87 ± 6.02
R3 numerical value (average roughness) (wrinkles around eyes [3]; 2 weeks after use, twice daily): 24.41 ± 4.16
R4 numerical value (smoothness depth) (wrinkles around eyes [3]; 2 weeks after use, twice daily): 23.64 ± 5.11
R5 numerical value (arithmetic average roughness) (wrinkles around eyes [3]; 2 weeks after use, twice daily): 9.44 ± 2.44
R1 numerical value (skin roughness) (wrinkles around eyes [3]; 4 weeks after use, twice daily): 51.06 ± 19.28
R2 numerical value (maximum roughness) (wrinkles around eyes [3]; 4 weeks after use, twice daily): 29.16 ± 5.12
R3 numerical value (average roughness) (wrinkles around eyes [3]; 4 weeks after use, twice daily): 18.62 ± 2.79
R4 numerical value (smoothness depth) (wrinkles around eyes [3]; 4 weeks after use, twice daily): 22.94 ± 10.03
R5 numerical value (arithmetic average roughness) (wrinkles around eyes [3]; 4 weeks after use, twice daily): 10.10 ± 5.97
R1 numerical value (skin roughness) (wrinkles around eyes [3]; Before use): 76.23 ± 12.15
R2 numerical value (maximum roughness) (wrinkles around eyes [3]; Before use): 54.26 ± 5.70
R4 numerical value (smoothness depth) (wrinkles around eyes [3]; Before use): 30.41 ± 7.01
R5 numerical value (arithmetic average roughness) (wrinkles around eyes [3]; Before use): 13.57 ± 3.65
Change(%) in R1 (wrinkles around eyes [3]; Before use-2 weeks after use): −28.38%
Change(%) in R4 (wrinkles around eyes [3]; Before use-2 weeks after use): −22.27%
Change(%) in R5 (wrinkles around eyes [3]; Before use-2 weeks after use): −30.43%
Change(%) in R1 (wrinkles around eyes [3]; Before use-4 weeks after use): −33.02%
Change(%) in R3 (wrinkles around eyes [3]; Before use-4 weeks after use): −45.62%
Change(%) in R4 (wrinkles around eyes [3]; Before use-4 weeks after use): −24.57%
Change(%) in R5 (wrinkles around eyes [3]; Before use-4 weeks after use): −26.52%
Ra numerical value (roughness average of wrinkle profile) (wrinkles around eyes [4]; 2 weeks after use, twice daily): 18.20 ± 3.94
Rt numerical value (distance between highest peak and lowest valley) (wrinkles around eyes [4]; 2 weeks after use, twice daily): 187.85 ± 34.10
Rmax numerical value (maximum height of wrinkle profile) (wrinkles around eyes [4]; 2 weeks after use, twice daily): 168.83 ± 29.61
Rp numerical value (maximum profile peak height) (wrinkles around eyes [4]; 2 weeks after use, twice daily): 116.47 ± 35.75
Rv numerical value (maximum profile valley depth) (wrinkles around eyes [4]; 2 weeks after use, twice daily): 71.38 ± 16.44
Ra numerical value (roughness average of wrinkle profile) (wrinkles around eyes [4]; 4 weeks after use, twice daily): 17.00 ± 3.88
Rt numerical value (distance between highest peak and lowest valley) (wrinkles around eyes [4]; 4 weeks after use, twice daily): 184.63 ± 36.83
Rmax numerical value (maximum height of wrinkle profile) (wrinkles around eyes [4]; 4 weeks after use, twice daily): 168.80 ± 33.21
Rp numerical value (maximum profile peak height) (wrinkles around eyes [4]; 4 weeks after use, twice daily): 121.88 ± 38.06
Rv numerical value (maximum profile valley depth) (wrinkles around eyes [4]; 4 weeks after use, twice daily): 62.75 ± 11.92
Ra numerical value (roughness average of wrinkle profile) (wrinkles around eyes [4]; Before use): 19.19 ± 4.27
Rt numerical value (distance between highest peak and lowest valley) (wrinkles around eyes [4]; Before use): 195.05 ± 31.31
Change(%) in Ra (wrinkles around eyes [4]; Before use-2 weeks after use): −5.15%
Change(%) in Rmax (wrinkles around eyes [4]; Before use-2 weeks after use): −4.23%
Change(%) in Rp (wrinkles around eyes [4]; Before use-2 weeks after use): −5.10%
Change(%) in Rt (wrinkles around eyes [4]; Before use-2 weeks after use): −3.69%
Change(%) in Rv (wrinkles around eyes [4]; Before use-2 weeks after use): −1.30%
Change(%) in Ra (wrinkles around eyes [4]; Before use-4 weeks after use): −11.42%
Change(%) in Rmax (wrinkles around eyes [4]; Before use-4 weeks after use): −4.25%
Change(%) in Rp (wrinkles around eyes [4]; Before use-4 weeks after use): −0.70%
Change(%) in Rt (wrinkles around eyes [4]; Before use-4 weeks after use): −5.35%
Change(%) in Rv (wrinkles around eyes [4]; Before use-4 weeks after use): −13.24%
Rmax numerical value (maximum height of wrinkle profile) (wrinkles around eyes [4]; Before use): 176.29 ± 27.79
Rp numerical value (maximum profile peak height) (wrinkles around eyes [4]; Before use): 122.73 ± 31.55
Rv numerical value (maximum profile valley depth) (wrinkles around eyes [4]; Before use): 72.32 ± 17.16
R3 numerical value (average roughness) (wrinkles around eyes [5]): 34.24 ± 3.51
